Laboratory results reported in US20240277767A1, “METHODS AND USES” (PROLEUKOCYTE AB, priority 2021, published 2024).
Entries after “also recorded” stand apart in the source; their conditions may differ.

Key:
Format in all cases: cell-based, human
KADA TIL = experiment: Quantification of CD4+ T cells and Tregs in AUF pre-treated KADA TIL (flow cytometry); details: AUF 0.5 μg/mL
Description: Tregs were defined as CD3+CD4+ FoxP3+. Directly after the treatment, TIL were stimulated for six hours with PMA/Ionomycin or autologous tumor cells and then stained for intracellular cytokines IL-10 (C) and TGFβ (D).
Lymphocytes were pre-treated for 18 h with Auranofin (AUF, with the concentration 1 μg/mL for NK cells and 0.5 μg/mL for TIL. As AUF was reconstituted in DMSO, control NK cells were pre-treated with DMSO with an equivalent volume to the highest compound concentration. For N-acetylcysteine (NAC, Invitrogen) treatment, DMSO pre-treated cells were incubated for 1 h with 5 or 10 mM NAC prior to H2O2 treatment. For H2O2 treatment, lymphocytes were washed and resuspended to 1×10^6 cells/mL in RPMI containing the indicated H2O2 (Sigma-Aldrich) concentration for 1 h at 37° C. 5% CO2. Cells were washed with medium and then used for further experiments.
All antibodies (see Table 1 in Example 1) and FACS reagents were used according to manufacturers' recommendation, if not stated otherwise. Cells were stained with LIVE/DEAD™ Fixable Aqua Dead Cell Stain Kit (Invitrogen) and then stained with the respective antibodies for 20 min at 4 °C in PBS 1% FBS. Intracellular staining was performed using Fixation/Permeabilization Kit (BD Biosciences) following the manufacturer's instructions. […]

[1] = tested on: Nrf2 target genes (NQO1, HMOX1, TXNRD1, Keap1); experiment: qPCR of classical Nrf2 target genes in NK cells
Description: Lymphocytes were pre-treated with AUF, SUL or DMF as described above. RNA was isolated using TRIzol™ Plus RNA Purification Kit (Invitrogen). cDNA was generated using the iScript™ cDNA Synthesis Kit (Bio-Rad) and qPCR was done using iTaq™ Universal SYBR® Green Supermix (Bio-Rad) in the CFX96 Touch Real-Time PCR Detection System (Bio-Rad). Fold change expression from untreated cells was calculated using the 2^-ΔΔCt formula with b-actin as reference gene. Evaluated genes were NAD(P)H Quinone Dehydrogenase 1 (NQO1), Kelch Like ECH Associated Protein 1 (Keap1), Heme Oxygenase 1 (HMOX1) and Thioredoxin Reductase 1 (TXNRD1).

CD8+ T cells = experiment: IFNγ release by expanded healthy donor CD8+ T cells by pre-treatment time
NK cells = experiment: ADCC: NK cells with RAJI cells coated with Rituximab or Ofatumumab
Description: Lymphocytes were isolated and pre-treated when indicated, with compound and H2O2, as described above. For degranulation/measuring CD107a expression, NK cells were co-cultured with K562 tumour cells at an effector target ratio 1:1 in the presence of anti-CD107a in U-bottom plates. After 2 h, GolgiStop™ and GolgiPlug™ (BD Bioscience) were added and cells were harvested after an additional 4 h co-culture and stained for CD56 and CD3, as described above. For positive control, 25 ng/ml PMA (Sigma Aldrich) and 500 ng/mL Ionomycin (Sigma Aldrich) were added.
(§1) For cytotoxic assay, a standard 4 h [Cr^51]-release assay was used. Briefly, tumour cells were harvested and labeled with 51Cr (PerkinElmer) and used as target cells. Effector cells, NK cells and T cells, were co-cultured in 96-well V-bottom plate with indicated tumour cells at the stated effector target ratio (E:T). The supernatant was collected onto LUMA plates (Perkin-Elmer) and radioactivity/tumour cell lysis was detected by MicroBeta2 (Perkin Elmer). Target cell killing measured by % specific lysis and calculated using the formula: ((experimental release-spontaneous release)/(maximum release-spontaneous release))*100.
For analyzing ADCC, NK cells were cultured with RAJI cells and Rituximab (0.5 μg/mL, MabThera, Roche) or Ofatumumab (0.05 μg/mL, Arzerra, Novartis).

ANRU TIL [2] = experiment: 3D killing assay: ANRU TIL on autologous tumour spheroids (Caspase 3/7, live cell imaging); details: 48 h co-culture, vs controls
Description: (§2) 5000 ANRU tumour cells were seeded per well in Ultra-Low Attachment 96-well plates (Corning Costar) in culture medium containing 2% Matrigel (Corning) for 3 days. 1×10^4AUF pre-treated TIL (see above), and spheroids were co-cultured and monitored for 48 h with the IncuCyte live cell imaging system (Essen Bioscience) in the presence of CellEvent™ Caspase 3/7 Green detection agent (Invitrogen).

ANRU TIL [3] = experiment: ANRU TIL exposed to activated autologous monocytes: spheroid caspase activation and IFNγ release; details: for Caspase activity in spheroids co-cultured with TIL exposed to activated autologous monocytes: highest dose of AUF, vs untreated control TIL
Description: (§3) For Nrf2 inhibition, NK cells were treated with 50 μM ML-385 (Sigma-Aldrich) in parallel. For H2O2 treatment, lymphocyte cells were washed and resuspended to 1×10^6 cells/mL in medium and exposed to indicated H2O2 (Sigma-Aldrich) concentration for 1 h at 37° C. Cells were washed with medium and then used for further experiments. For monocyte experiments, autologous NK cell-monocytes or TIL-monocytes were used. NK cells/TIL were isolated and pre-treated with 0.5 μg/mL AUF, as described above, and co-cultured with unstimulated at the ratio, 1:2 M:NK, or stimulated monocytes at the ratio, 1:1 M:NK, if not indicated otherwise. Stimulated monocytes were activated with 100 ng/ml PMA for 1 min, washed and added at indicated ratio, the number of NK cell/TIL was kept constant. As control, H2O2 was used at indicated concentration. Cells were co-cultured for 2 h and then effector cells were stained for intracellular ROS (see flow cytometry) or used as effector cells in Cr^51 release assay (E:T ratio 10:1).
For cytokine release assay, NK cells and TIL were cultured with indicated tumour cells at the effector target ratio 4:1 (E:T) for 24 h in U-bottom plates. IFNγ secretion was measured using human IFN-γ ELISA development kit (Mabtech) following the manufacturer's instructions.
as §2

[4] = tested on: tumour infiltrating lymphocytes (TIL); experiment: [Cr51]-release assay: lysis of autologous tumour cells by pre-treated TIL
Description: Melanoma patient derived TIL and CD19 directed CAR T cells were generated as previously described (Magalhaes et al., 2018; Lövgren et al., 2020).
Lymphocytes were pre-treated for 18 h with Auranofin (AUF, with the concentration 1 μg/mL for NK cells and 0.5 μg/mL for TIL, if not indicated differently), DL-Sulforaphane (SUL) or Dimethyl Fumarate (DMF) (all Sigma-Aldrich) at indicated concentrations.
as §3, §1

[5] = upon addition of H2O2, vs control NK cells

Compound: CC(=O)OC[C@H]1O[C@@H]([S-])[C@H](OC(C)=O)[C@@H](OC(C)=O)[C@@H]1OC(C)=O.CCP(CC)CC.[Au+] [AUF, Auranofin]
- Frequency of CD4+ T cells after AUF pre-treatment (KADA TIL): did not observe any increase
- Induction of regulatory T cells (CD3+CD4+FoxP3+) (KADA TIL; 0 h or 72 h post pre-treatment): do not induce regulatory T cells; also recorded: no induction of regulatory T cells could be detected
- Time of HMOX1 expression peak in NK cells [1]: 6 h
- HMOX1 expression in NK cells (fold change vs untreated) ([1]; already at 1 h): pronounced upregulation
- Expression of the other Nrf2 target genes in NK cells (fold change vs untreated) ([1]; kinetic): more gradually increased over time
- Pre-treatment time after which a protective effect was observed in T cells (CD8+ T cells): 8 to 12 h
- Ability of NK cells to degranulate in response to anti-CD20 coated RAJI cells (NK cells; [5]): significant increase
- Ability of NK cells to lyse anti-CD20 coated RAJI cells (NK cells; [5]): significant increase
- Capacity of NK cells to recognize anti-CD20 coated RAJI cells (NK cells; without the presence of ROS): increased capacity to recognize the anti-CD20 coated RAJI cells
- Capacity of ANRU TIL to induce apoptosis in spheroid tumour cells (Caspase 3/7) (ANRU TIL [2]): significantly increased capacity to induce apoptosis
- Cytokine release (IFNγ) by TIL impaired by monocyte derived ROS (ANRU TIL [3]; 2D grown ANRU tumour cells): partially be rescued
- Caspase activity in spheroids co-cultured with TIL exposed to activated autologous monocytes (ANRU TIL [3]): increased caspase activity
- Caspase activity in spheroids co-cultured with TIL exposed to activated autologous monocytes (ANRU TIL [3]; listed as auranofin): increased elimination of spheroid grown tumour cells
- Lysis of autologous tumour cells by TIL after AUF removal ([4]; 0-72 h after AUF removal, H2O2): increased lysis of autologous tumour cells
- Specific lysis of autologous tumour cells by TIL ([4]; KADA, also in the absence of ROS): clearly higher
- Time after AUF withdrawal until which increased lysis by TIL lasted ([4]; highest AUF concentration): 72 h
